The results in this text go back to the RepoRT retention time repository.

The series is described as follows: RP, Advanced Chromatography Technologies ACE C18, 50 × 2.1 mm, 3 µm; A: water + 10 mM ammonium acetate; B: acetonitrile; gradient (min/%B) 0/5 1/5 21/95. As to conditions: stereoisomer not certain.
As for `CCC(C)(C)c1cc(-n2nc3ccccc3n2)c(O)c(C(C)(C)CC)c1` [2-(2H-benzotriazol-2-yl)-4-6-di-tert-pentylphenol], the LC retention time came to 20.8 min.
Regarding `c1ccc2n[nH]nc2c1` [1-H-benzotriazole], the LC retention time is 3.14 min.
For the molecule `c1ccc2sc(SSc3nc4ccccc4s3)nc2c1` [2-2'-dithiobisbenzothiazole], the LC retention time was 14.6 min.
As to `CC(C)COC(=O)c1ccccc1C(=O)OCC(C)C` [Diisobutyl phthalate], the LC retention time came to 14 min.
For `Nc1ccc([N+](=O)[O-])cc1[N+](=O)[O-]` [2-4-dinitroaniline], the LC retention time was found to be 7.02 min.
For `c1ccc2scnc2c1` [Benzothiazole], the LC retention time came out at 5.38 min.
As for `CC(C)(C)c1cc(-n2nc3ccc(Cl)cc3n2)c(O)c(C(C)(C)C)c1` [2-4-di-tert-butyl-6-(5-chlorobenzotriazol-2-yl)phenol], the LC retention time amounted to 20.7 min.
Regarding `CC(C)(c1ccccc1)c1cc(-n2nc3ccccc3n2)c(O)c(C(C)(C)c2ccccc2)c1`, the LC retention time is 19.4 min.
With `Nc1c(Cl)cc([N+](=O)[O-])cc1Cl` [2,6-dichloro-4-nitroaniline], the LC retention time turned out to be 9.41 min.
As to `CSc1nc2ccccc2s1` [2-methylthiobenzothiazole], the LC retention time came to 9.58 min.
Then `c1ccc2ncccc2c1` [Quinoline], with 6.1 min.
Consider `Nc1c(Cl)cc([N+](=O)[O-])cc1[N+](=O)[O-]` [6-chloro-2-4-dinitroaniline], for which the LC retention time is 8.9 min.
As for `Nc1c(Br)cc([N+](=O)[O-])cc1[N+](=O)[O-]` [2-bromo-4,6-dinitroaniline], the LC retention time was found to be 8.73 min.
With `Cc1ccc2n[nH]nc2c1` [5-Methyl-1H-benzotriazole], the LC retention time was determined as 4.65 min.
Turning to `Cc1cc2n[nH]nc2cc1C` [5-6-Dimethyl-2H-benzotriazole], the LC retention time came out at 5.73 min.
In the case of `c1ccc2sc(SNC3CCCCC3)nc2c1` [N-cyclohexyl-2-benzothiazolesulphenamide], the LC retention time worked out at 13.7 min.
Then `Cc1ccc(O)c(-n2nc3ccccc3n2)c1` [2-(benzotriazol-2-yl)-4-methylphenol], with 13.3 min.
